Article PMC3069034, “Structuring Detergents for Extracting and Stabilizing Functional Membrane Proteins” (PLoS ONE, 2011)

Target: BmrA (Bacillus subtilis, UniProt O06967)
Assay: intrinsic tryptophan fluorescence quenching of purified protein
Format: binding
Excerpt: intrinsic tryptophan fluorescence quenching of purified protein on BmrA | the binding of daunorubicin was similar for both detergents.

Chain of BmrA (O06967 whole entry): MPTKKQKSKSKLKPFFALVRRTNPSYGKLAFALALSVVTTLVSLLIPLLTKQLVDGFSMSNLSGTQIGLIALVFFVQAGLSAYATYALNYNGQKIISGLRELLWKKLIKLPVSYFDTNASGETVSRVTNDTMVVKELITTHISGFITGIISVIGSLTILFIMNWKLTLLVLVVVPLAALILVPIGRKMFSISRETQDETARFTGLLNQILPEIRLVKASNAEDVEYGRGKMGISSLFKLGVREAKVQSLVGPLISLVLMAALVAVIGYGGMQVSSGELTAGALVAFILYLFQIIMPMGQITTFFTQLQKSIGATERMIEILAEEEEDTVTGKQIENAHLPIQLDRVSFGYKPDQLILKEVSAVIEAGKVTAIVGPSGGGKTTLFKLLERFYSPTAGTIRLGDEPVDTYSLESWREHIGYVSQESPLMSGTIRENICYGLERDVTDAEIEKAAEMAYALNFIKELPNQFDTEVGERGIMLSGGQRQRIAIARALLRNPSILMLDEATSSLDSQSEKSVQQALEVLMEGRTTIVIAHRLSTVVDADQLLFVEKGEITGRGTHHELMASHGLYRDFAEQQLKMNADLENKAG

## COc1cccc2c1C(=O)c1c(O)c3c(c(O)c1C2=O)C[C@@](O)(C(C)=O)C[C@@H]3O[C@H]1C[C@H](N)[C@H](O)[C@H](C)O1 [daunorubicin]
  Kd: 12.4 ± 0.8 µM
